According to patent publication US20150025080A1, “SOLID DISPERSIONS OF SITAGLIPTIN AND PROCESSES FOR THEIR PREPARATION” (RANBAXY LABORATORIES LIMITED, priority 2011, published 2015):

Test: Storage stability in humidity chamber at 50% RH and 25° C., evaluated by XRPD
Type: physicochemical
Settings: about 50% relative humidity
Description: The X-ray powder diffractograms (XRPD) of the samples were determined by using Instrument: PANalytical; Mode: Expert PRO; Detector: Xcelerator; ScanRange: 3-40; Step size: 0.02; Range: 3-40° 2 theta; CuKα radiation at 45 kV.
0.52 g of the product obtained as per Example 2 was stored in double sealed polybags in a humidity chamber maintained at 50% RH and 25° C. for 4 days to evaluate the stability. The XRPD pattern of the compound stored at 50% RH and 25° C. for 4 days is depicted in FIG. 10.
0.54 g of the product obtained as per Example 2 was stored in double sealed polybags in a humidity chamber maintained at 50% RH and 25° C. for 10 days to evaluate the stability. The XRPD pattern of the compound stored at 50% RH and 25° C. for 10 days is depicted in FIG. 11.
0.54 g of the product obtained as per Example 5 was stored in double-sealed polybags in a humidity chamber maintained at 50% RH and 25° C. for 4 days to evaluate the stability. The XRPD pattern of the product stored at 50% RH and 25° C. for 4 days is depicted in FIG. 13.
0.53 g of the product obtained as per Example 5 was stored in double-sealed polybags in a humidity chamber maintained at 50% RH and 25° C. for 10 days to evaluate the stability. The XRPD pattern of the product stored at 50% RH and 25° C. for 10 days is depicted in FIG. 14. […]

N[C@@H](CC(=O)N1CCn2c(nnc2C(F)(F)F)C1)Cc1cc(F)c(F)cc1F [sitagliptin dihydrogen phosphate]
time period in which the amorphous form tends to undergo crystallization: about 4 days
